Assay [1] deals with T1, CYP26A (P450RAI-1) (Homo sapiens, UniProt O43174).
T1 construct: expressed in transfected cells; host or cells: HeLa
T1 sequence (O43174 1-497): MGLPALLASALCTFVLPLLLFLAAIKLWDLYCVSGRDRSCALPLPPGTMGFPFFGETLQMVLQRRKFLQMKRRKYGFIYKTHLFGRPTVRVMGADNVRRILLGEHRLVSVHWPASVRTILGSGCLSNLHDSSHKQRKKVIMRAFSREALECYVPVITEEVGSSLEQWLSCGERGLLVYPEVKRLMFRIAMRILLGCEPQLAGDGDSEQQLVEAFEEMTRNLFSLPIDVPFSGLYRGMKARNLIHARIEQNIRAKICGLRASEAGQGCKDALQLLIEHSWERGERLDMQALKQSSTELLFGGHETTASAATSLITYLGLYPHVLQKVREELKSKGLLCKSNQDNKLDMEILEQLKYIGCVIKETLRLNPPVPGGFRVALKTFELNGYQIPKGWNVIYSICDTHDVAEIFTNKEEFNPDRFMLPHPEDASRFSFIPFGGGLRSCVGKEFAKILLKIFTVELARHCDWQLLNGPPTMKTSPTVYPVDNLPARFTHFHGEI
Description: Cell-based inhibition of RA metabolism in CYP26A stably transfected HeLa cells. The conditions noted are these: stably transfected HeLa cells, [3H]-RA, 3 hours at 37° C.; read-out: P450RAI-1 Whole cell IC50. In a few lines: (§1)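 Stably transfected HeLa cells (5×10^5/well) in MEM with 10% FBS and 0.05 μCi [3H]-RA, compounds at 10, 1 or 0.1 μM final, 3 h at 37° C. Retinoids extracted by modified Bligh-Dyer (methylene chloride); aqueous radioactivity counted; ID50 for 50% inhibition of RA metabolism derived from log-transformed data.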

The target in assay [2] is T2, CYP26B (P450RAI-2) (Homo sapiens, UniProt Q9NR63).
T2 construct: expressed in transfected cells; host or cells: HeLa
T2 sequence (Q9NR63 1-512): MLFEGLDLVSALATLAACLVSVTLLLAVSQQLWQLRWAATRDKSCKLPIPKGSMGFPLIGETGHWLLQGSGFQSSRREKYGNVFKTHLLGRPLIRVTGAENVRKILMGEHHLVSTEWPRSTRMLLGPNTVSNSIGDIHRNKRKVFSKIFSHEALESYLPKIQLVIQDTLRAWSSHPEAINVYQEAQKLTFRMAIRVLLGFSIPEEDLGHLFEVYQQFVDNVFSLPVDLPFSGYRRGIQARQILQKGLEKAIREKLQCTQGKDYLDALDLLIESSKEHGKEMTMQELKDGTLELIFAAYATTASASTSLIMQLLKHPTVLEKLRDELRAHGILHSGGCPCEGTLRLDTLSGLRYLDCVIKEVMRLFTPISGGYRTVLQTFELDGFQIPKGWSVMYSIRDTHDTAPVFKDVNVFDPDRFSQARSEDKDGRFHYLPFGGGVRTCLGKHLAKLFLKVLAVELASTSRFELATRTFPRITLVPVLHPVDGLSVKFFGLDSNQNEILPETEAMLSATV
Description: Cell-based inhibition of RA metabolism in CYP26B stably transfected HeLa cells. The conditions noted are these: stably transfected HeLa cells, [3H]-RA, 3 hours at 37° C.; read-out: P450RAI-2 Whole cell IC50. In a few lines: as §1

Assay [3] has as its target T3, RAR β (Homo sapiens, UniProt P10826).
T3 sequence (P10826 1-455): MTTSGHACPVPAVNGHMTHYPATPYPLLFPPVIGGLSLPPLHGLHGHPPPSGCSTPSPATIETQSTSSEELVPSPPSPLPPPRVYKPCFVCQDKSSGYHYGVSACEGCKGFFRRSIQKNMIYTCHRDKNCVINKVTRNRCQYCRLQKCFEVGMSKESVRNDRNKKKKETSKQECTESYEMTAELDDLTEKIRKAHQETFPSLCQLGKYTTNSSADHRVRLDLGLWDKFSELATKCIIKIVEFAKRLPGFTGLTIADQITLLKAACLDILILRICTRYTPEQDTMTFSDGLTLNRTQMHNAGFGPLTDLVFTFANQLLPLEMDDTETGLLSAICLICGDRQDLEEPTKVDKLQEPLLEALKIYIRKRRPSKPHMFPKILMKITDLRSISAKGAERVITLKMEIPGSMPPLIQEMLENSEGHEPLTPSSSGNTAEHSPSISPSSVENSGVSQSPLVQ
Description: RAR β Kd. The class given is binding. The conditions noted are these: last item of cell EC50/(EFFICACY)/Kd.

Assay [4] deals with T4, RAR α (Homo sapiens, UniProt P10276).
T4 sequence (P10276 1-462): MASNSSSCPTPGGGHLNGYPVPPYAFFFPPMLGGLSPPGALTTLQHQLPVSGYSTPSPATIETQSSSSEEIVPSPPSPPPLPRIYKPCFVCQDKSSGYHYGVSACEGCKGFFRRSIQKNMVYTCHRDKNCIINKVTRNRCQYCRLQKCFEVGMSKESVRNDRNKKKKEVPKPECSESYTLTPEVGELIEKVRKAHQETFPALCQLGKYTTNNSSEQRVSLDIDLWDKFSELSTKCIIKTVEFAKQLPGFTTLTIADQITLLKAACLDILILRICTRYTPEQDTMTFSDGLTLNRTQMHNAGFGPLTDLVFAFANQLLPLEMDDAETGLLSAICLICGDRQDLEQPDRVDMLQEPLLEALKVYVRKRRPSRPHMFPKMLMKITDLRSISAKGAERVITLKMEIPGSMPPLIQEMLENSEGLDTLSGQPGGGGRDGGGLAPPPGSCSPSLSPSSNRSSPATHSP
Briefly: RAR α Kd. Type of assay: binding. The conditions noted are these: last item of cell EC50/(EFFICACY)/Kd.

In assay [5] the target is T3, RAR β. Description: RAR β EC50/(efficacy). The class given is cell-based. The conditions noted are these: for RAR β (EFFICACY): value in brackets of cell EC50/(EFFICACY)/Kd.
Assay [6] deals with T5, RAR γ (Homo sapiens, UniProt P13631).
T5 sequence (P13631 1-454): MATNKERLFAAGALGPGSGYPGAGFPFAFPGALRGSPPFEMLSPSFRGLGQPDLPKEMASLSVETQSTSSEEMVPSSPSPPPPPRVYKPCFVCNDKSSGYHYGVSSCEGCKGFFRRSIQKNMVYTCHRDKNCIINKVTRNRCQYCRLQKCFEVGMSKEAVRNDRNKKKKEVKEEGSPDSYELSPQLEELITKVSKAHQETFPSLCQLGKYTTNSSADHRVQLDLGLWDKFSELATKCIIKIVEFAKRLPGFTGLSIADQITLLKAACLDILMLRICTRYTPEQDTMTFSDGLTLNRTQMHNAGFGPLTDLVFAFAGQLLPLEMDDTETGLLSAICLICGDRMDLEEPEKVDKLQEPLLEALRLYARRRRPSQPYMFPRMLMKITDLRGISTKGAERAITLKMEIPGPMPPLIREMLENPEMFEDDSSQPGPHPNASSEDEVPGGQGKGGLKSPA
Description: RAR γ Kd. Type of assay: binding. The conditions noted are these: last item of cell EC50/(EFFICACY)/Kd.

The source of these data is patent publication US7468391B2, “Methods for treating retinoid responsive disorders using selective inhibitors of CYP26A and CYP26B” (Allergan, Inc., priority 2003, dated 2008).

Usually IC50 stands for the concentration that inhibits the measured activity by half. The term Kd denotes a measure of binding affinity in units of concentration. What is called EC50 is the midpoint of the concentration-response curve. A high value points to weaker potency.

Where only a bound is given, the exact number is not on record here.

Consider `COc1cc(C#Cc2ccc(CC(=O)O)c(F)c2)cc2c1C(N(C)C1CC1)CCC2(C)C` (stereo not shown) [Compound 26, {4-[5-(Cyclopropyl-methyl-amino)-4-methoxy-8,8-dimethyl-5,6,7,8-tetrahydro-naphthalen-2-ylethynyl]-2-fluoro-phenyl}-acetic acid], for which the IC50 worked out at 0.018 µM in assay [1] and 5 µM in assay [2]. The Kd was over 10 µM in assay [3], over 10 µM in assay [4] and 1.12 µM in assay [6]. The “RAR β (EFFICACY)” value in assay [5] was determined as 25.

With `Cc1ccc(CN(C)C2CC2)cc1C#Cc1ccc(/C=C/C(=O)O)cc1` [Compound 34, (E)-3-(4-{5-[(Cyclopropyl-methyl-amino)-methyl]-2-methyl-phenylethynyl}-phenyl)-acrylic acid], the half-maximal inhibitory concentration (IC50) was over 10 µM in assay [1] and 0.12 µM in assay [2]. The Kd in assay [3] was determined as 3.49 µM; in assay [4], 5.65 µM; in assay [6], 8.53 µM. For the same compound, the “RAR β (EFFICACY)” value in assay [5] worked out at 20.

In the case of `CC(C(=O)O)c1ccc(C#Cc2ccc3c(c2)C(C)(C)CCC3N(C)C2CC2)cc1` (stereo not shown) [Compound 51, 2-{4-[5-(Cyclopropyl-methyl-amino)-8,8-dimethyl-5,6,7,8-tetrahydro-naphthalen-2-ylethynyl]-phenyl}-propionic acid], the concentration for half-maximal inhibition (IC50) was 0.2 µM in assay [1] and over 10 µM in assay [2]. The equilibrium dissociation constant (Kd) in assay [3], in assay [4] and in assay [6] was over 10 µM throughout. Besides, the “RAR β (EFFICACY)” value in assay [5] is recorded as 5.

Take `C#Cc1cc(NC(=O)Nc2ccc(C(=O)O)c(F)c2)cc2c1OC(C)(C)CC2(C)C` [Compound 63, 4-[3-(8-Ethynyl-2,2,4,4-tetramethyl-chroman-6-yl)-ureido]-2-fluoro-benzoic acid]: the results for the IC50 in assay [1] and in assay [2] were over 10 µM and 0.68 µM, respectively. In addition, the dissociation constant Kd is 11 µM in assay [3], over 100 µM in assay [4] and over 100 µM in assay [6]. In assay [5] (first item of cell EC50/(EFFICACY)/Kd), this compound registered an EC50 of 0.853 µM. Also, the “RAR β (EFFICACY)” value in assay [5] was found to be 37.

As for `C=Cc1cc(C#Cc2ccc(CC(=O)O)cc2)cc2c1C(=O)CCC2(C)C` [Compound 22, [4-(8,8-Dimethyl-5-oxo-4-vinyl-5,6,7,8-tetrahydro-naphthalen-2-ylethynyl)-phenyl]-acetic acid], the IC50 in assay [1] came out at 0.007 µM; in assay [2], 0.2 µM. Besides, the Kd in assay [3], in assay [4] and in assay [6] was over 10 µM throughout. In addition, the “RAR β (EFFICACY)” value in assay [5] was 15.

Take `COc1cc(C#CC2=CCC(/C=C(\C)C(=O)O)C=C2)cc2c1C(N(C)C1CC1)CCC2(C)C` (stereo not shown) [Compound 30, (E)-3-{4-[5-(Cyclopropyl-methyl-amino)-4-methoxy-8,8-dimethyl-5,6,7,8-tetrahydro-naphthalen-2-ylethynyl]-cyclohexa-2,4-dienyl}-2-methyl-acrylic acid]: the IC50 in assay [1] is 0.18 µM; in assay [2], over 10 µM. The Kd in assay [3], in assay [4] and in assay [6] was over 10 µM throughout. The “RAR β (EFFICACY)” value in assay [5] is 15.

On to `CCOC(=O)c1cc(C#Cc2ccc(CC(=O)O)cc2)cc2c1C(N(C)C1CC1)CCC2(C)C` (stereo not shown) [Compound 24, 3-(4-Carboxymethyl-phenylethynyl)-8-(cyclopropyl-methyl-amino)-5,5-dimethyl-5,6,7,8-tetrahydro-naphthalene-1-carboxylic acid ethyl ester], for which the figures for the half-maximal inhibitory concentration (IC50) in assay [1] and in assay [2] were 0.035 µM and 5 µM, respectively. In addition, the Kd turned out to be 7.19 µM in assay [3], 8.57 µM in assay [4] and 7.75 µM in assay [6]. For the same compound, the “RAR β (EFFICACY)” value in assay [5] is on record as 30.

Take `CC1(C)CC(C)(C)c2cc(C#Cc3ccc(CC(=O)O)c(F)c3)cc(O)c2O1` [Compound 10, [2-Fluoro-4-(8-hydroxy-2,2,4,4-tetramethyl-chroman-6-ylethynyl)-phenyl]-acetic acid]: the IC50 in assay [1] was 0.07 µM; in assay [2], 0.7 µM. The dissociation constant (Kd) in assay [3], in assay [4] and in assay [6] was over 10 µM in each case. Further, the “RAR β (EFFICACY)” value in assay [5] came to 15.

Consider `CCOC(=O)C1=C(C)CC(C)(C)c2cc(C#Cc3ccc(CC(=O)O)cc3)ccc21` [Compound 58, 6-(4-Carboxymethyl-phenylethynyl)-2,4,4-trimethyl-3,4-dihydro-naphthalene-1-carboxylic acid ethyl ester], for which the half-maximal inhibitory concentration (IC50) in assay [1] was 3.5 µM; in assay [2], over 10 µM. Moreover, the figures for the Kd in assay [3], in assay [4] and in assay [6] were 4.61 µM, over 10 µM and over 10 µM, respectively. In addition, in assay [5], the “RAR β (EFFICACY)” value was determined as 25.

In the case of `CN(Cc1cccc(C#Cc2ccc(/C=C/C(=O)O)cc2)c1)C1CC1` [Compound 31, (E)-3-(4-{3-[(Cyclopropyl-methyl-amino)-methyl]-phenylethynyl}-phenyl)-acrylic acid], the figures for the IC50 in assay [1] and in assay [2] were over 10 µM and 0.6 µM, respectively. The Kd in assay [3], in assay [4] and in assay [6] was over 10 µM throughout. Besides, the “RAR β (EFFICACY)” value in assay [5] is listed as 25.

In the case of `CCOC(=O)C1=C(C)CC(C)(C)c2cc(C#Cc3ccc(CC(=O)O)c(F)c3)ccc21` [Compound 59, 6-(4-Carboxymethyl-3-fluoro-phenylethynyl)-2,4,4-trimethyl-3,4-dihydro-naphthalene-1-carboxylic acid ethyl ester], the concentration for half-maximal inhibition (IC50) was 1.2 µM in assay [1] and over 10 µM in assay [2]. The Kd in assay [3] was 2.86 µM; in assay [4], over 10 µM; in assay [6], over 10 µM. Moreover, in assay [5], the “RAR β (EFFICACY)” value was determined as 35.
